We go through 32 molecules from ChEMBL document CHEMBL4364281, “Design of wogonin-inspired selective cyclin-dependent kinase 9 (CDK9) inhibitors with potent in vitro and in vivo antitumor activity” (Eur J Med Chem, 2019).

pIC50: −log10 of the molar value. ≈ marks a conversion by molar mass, not a printed value. Calls of active or inactive are those of the source. No cut-off for these calls is given here.

In one data set the test system is HepG2. The experiment in a line: cells. Conditions: Homo sapiens, HepG2, 72 h.
For the next data set, the target named is CDK9/cyclin T1 (Homo sapiens, UniProt P50750).
Chain of CDK9/cyclin T1 (O60563 whole entry): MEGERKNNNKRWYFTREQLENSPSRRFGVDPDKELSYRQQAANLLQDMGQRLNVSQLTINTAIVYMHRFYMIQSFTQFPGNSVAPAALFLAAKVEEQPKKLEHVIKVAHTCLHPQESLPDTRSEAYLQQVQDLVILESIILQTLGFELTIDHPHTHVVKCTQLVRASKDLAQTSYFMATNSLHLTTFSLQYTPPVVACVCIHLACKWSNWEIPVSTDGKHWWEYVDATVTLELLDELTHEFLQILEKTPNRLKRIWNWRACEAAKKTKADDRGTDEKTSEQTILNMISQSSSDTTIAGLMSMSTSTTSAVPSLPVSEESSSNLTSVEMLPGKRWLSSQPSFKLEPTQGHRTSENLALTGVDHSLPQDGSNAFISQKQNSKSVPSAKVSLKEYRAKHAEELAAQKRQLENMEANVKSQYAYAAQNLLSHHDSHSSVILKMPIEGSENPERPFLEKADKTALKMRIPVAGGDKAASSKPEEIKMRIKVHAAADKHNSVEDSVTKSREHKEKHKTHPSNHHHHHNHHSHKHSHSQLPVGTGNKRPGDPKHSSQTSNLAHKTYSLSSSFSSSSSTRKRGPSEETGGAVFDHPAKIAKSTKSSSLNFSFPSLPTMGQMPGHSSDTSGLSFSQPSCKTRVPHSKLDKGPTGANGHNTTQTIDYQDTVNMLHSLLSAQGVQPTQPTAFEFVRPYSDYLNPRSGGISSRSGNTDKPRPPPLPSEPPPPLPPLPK
Chain of CDK9/cyclin T1 (P50750 whole entry): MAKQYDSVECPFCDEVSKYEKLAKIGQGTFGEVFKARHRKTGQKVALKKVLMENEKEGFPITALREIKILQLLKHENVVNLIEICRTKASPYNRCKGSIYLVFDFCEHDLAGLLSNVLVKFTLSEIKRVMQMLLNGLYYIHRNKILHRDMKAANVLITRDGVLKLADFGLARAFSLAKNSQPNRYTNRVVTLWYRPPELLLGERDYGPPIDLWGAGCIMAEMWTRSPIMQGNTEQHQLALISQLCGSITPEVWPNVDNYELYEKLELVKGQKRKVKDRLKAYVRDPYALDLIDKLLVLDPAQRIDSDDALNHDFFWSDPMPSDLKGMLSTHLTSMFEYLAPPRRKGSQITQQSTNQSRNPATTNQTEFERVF
Data set [1] has as its target CDK2/Cyclin A2 (Homo sapiens, UniProt P24941).
Description: (§1) Inhibition of human CDK2/cyclin-A2 using H1 histone as substrate after 2 hrs by [gamma-33P]-ATP assay
Another data set relates to A549. The experiment in a line: cells. As to conditions: Homo sapiens, A549, 72 h.
A further data set concerns HCT-116. The experiment in a line: cells. Conditions: Homo sapiens, HCT-116, 72 h.
Data set [2] relates to MV4-11. The experiment in a line: cells. Conditions: Homo sapiens, MV4-11, 72 h.
Description: Antiproliferative activity against human MV4-11 cells assessed as reduction in cell viability after 72 hrs by MTT assay
In data set [3] the target is CDK2/Cyclin A2 (Homo sapiens, UniProt P24941+P20248).
Description: as §1
Data set [4] in a line: physchem. Conditions: methanesulfonic acid buffer, pH 4.5.
Description: Solubility of compound in methanesulfonic acid buffer at pH 4.5
Data set [5] is described as follows: physchem.
Description: Intrinsic solubility of compound by potentiometric titration assay
A short description of data set [6]: physchem. As to conditions: buffer, pH 7.4.
Description: Hydrophobicity, log D of compound at pH 7.4
The test system of data set [7] is MV4-11. The experiment in a line: Antitumor activity against human MV4-11 cells xenografted in BALB/c mouse assessed as reduction in tumour growth at 5 mg/kg, iv administered every other day for 21 days. The format is functional, organism-based. For orientation: In xenograft studies the graft and the host belong to different species.

Description for A549: Antiproliferative activity against human A549 cells assessed as reduction in cell viability after 72 hrs by MTT assay
Description for HCT-116: Antiproliferative activity against human HCT116 cells assessed as reduction in cell viability after 72 hrs by MTT assay
Description for HepG2: Antiproliferative activity against human HepG2 cells assessed as reduction in cell viability after 72 hrs by MTT assay

Usually pIC50 stands for the IC50 on a negative log10 scale, so that one unit is a factor of ten. In the data set with HepG2, `COc1c(O)cc(O)c2c(=O)cc(-c3ccccc3Br)oc12` had a pIC50 of 4.47.

Molecule `CCN(CC)c1ccc(-c2cc(=O)c3c(O)cc(O)c(OC)c3o2)cc1` had a pIC50 in the data set on HepG2 of 5.19. Against the preceding molecule, the pIC50 is 0.72 log units higher. Take `Cc1n[nH]c(C)c1Oc1c(O)cc(O)c2c(=O)cc(-c3ccc(N4CCN(C)CC4)cc3)oc12`: the pIC50 is 7.90 at CDK9/cyclin T1; 6.08 against CDK2/Cyclin A2 [1]; 5.20 in the data set with HepG2; 5.60 in the data set with A549; 5.48 in the data set on HCT-116; 5.66 in the data set on MV4-11 [2]. On to `CC(C)Oc1c(O)cc(O)c2c(=O)cc(-c3ccc(N4CCN(C)CC4)cc3)oc12`, for which the pIC50 against CDK9/cyclin T1 was 6.75; with HepG2, 4.83; in the data set with A549, 5.39; in the data set with HCT-116, 4.89; in the data set on MV4-11 [2], 5.20. Further, the IC50 result against CDK2/Cyclin A2 [3] is “Not Active”.

As a reminder, the solubility is how much of the substance goes into solution per volume. A high value points to much dissolved substance. Usually logD stands for lipophilicity at a set pH, counting ionised and neutral species. Read a high logD as higher lipophilicity. For `Cc1n[nH]c(C)c1Oc1c(O)cc(O)c2c(=O)cc(-c3ccc(N4CCNCC4)cc3)oc12`, the negative-log IC50 (pIC50) is 7.97 at CDK9/cyclin T1; 5.98 at CDK2/Cyclin A2 [1]; 5.07 with HepG2; 5.26 in the data set on A549; 5.32 with HCT-116; 5.36 with MV4-11 [2]. The values for the solubility in the data set “physchem [4]” and in “physchem [5]” were 30 µg/mL (≈ 66.9 µM) and 1 µg/mL (≈ 2.23 µM), respectively. In addition, in the data set “physchem [6]”, the logD was determined as 2.91. For `COc1c(O)cc(O)c2c(=O)cc(-c3cccc(N4CCCNCC4)c3)oc12`, in the data set on HepG2, the pIC50 was 4.66.

With `CN1CCN(c2ccc(-c3cc(=O)c4c(O)cc(O)c(Oc5c[nH][nH]c5=O)c4o3)cc2)CC1`, the pIC50 with HepG2 was 5.09. This pIC50 lies 0.43 log units higher than the previous one. As to `COc1cccc2c1C(=O)c1c(O)c3c(c(O)c1C2=O)C[C@@](O)(C(=O)CO)C[C@@H]3O[C@H]1C[C@H](N)[C@H](O)[C@H](C)O1`, the inhibition result in the data set on MV4-11 [7] is “Active”. On to `CN1CCC(Oc2c(O)cc(O)c3c(=O)cc(-c4ccc(N5CCN(C)CC5)cc4)oc23)CC1`, for which, in the data set with HepG2, the pIC50 is 5.17. Same read-out and setting: in the case of `CN1CCN(c2ccc(-c3cc(=O)c4c(O)cc(O)c(OC5CCCCC5)c4o3)cc2)CC1` it was 4.56. As for `CC(C)Oc1c(O)cc(O)c2c(=O)cc(-c3ccc(N4CCNCC4)cc3)oc12`, the pIC50 is 7.03 at CDK9/cyclin T1; 4.74 in the data set with HepG2; 5.26 in the data set on A549; 5.47 in the data set on HCT-116; 5.21 with MV4-11 [2]. Also, the IC50 result against CDK2/Cyclin A2 [3] is “Not Active”. Take `COc1c(O)cc(O)c2c(=O)cc(-c3cccc(N4CCNCC4)c3)oc12`: the pIC50 with HepG2 was 5.00. The same measure, in the same setting: then `COc1c(O)cc(O)c2c(=O)cc(-c3ccc(N4CCCNCC4)cc3)oc12`, with 4.74. The same measure, in the same setting: then `CN1CCC(Oc2c(O)cc(O)c3c(=O)cc(-c4ccc(N5CCNCC5)cc4)oc23)CC1`, with 4.40.

For the molecule `COc1c(O)cc(O)c2c(=O)cc(-c3cccc(N4CCN(C)CC4)c3)oc12`, the pIC50 in the data set on HepG2 was 4.88. On the same count and under the same terms, then `O=c1cc(-c2ccc(N3CCNCC3)cc2)oc2c(OC3CCNC3)c(O)cc(O)c12` (stereo not given), with below 4.00; and `COc1c(O)cc(O)c2c(=O)cc(-c3ccc(N4CCOCC4)cc3)oc12`, with 4.11; and `COc1c(O)cc(O)c2c(=O)cc(-c3cccc(Br)c3)oc12`, with 4.42.

For the molecule `O=c1cc(-c2ccc(N3CCNCC3)cc2)oc2c(OC3CCCC3)c(O)cc(O)c12`, the negative-log IC50 (pIC50) in the data set on HepG2 was 5.28. Still for that read-out and setting: then `COc1c(O)cc(O)c2c(=O)cc(-c3ccc([N+](=O)[O-])cc3)oc12`, with below 4.00; and `COc1c(O)cc(O)c2c(=O)cc(-c3cccc(N4CCOCC4)c3)oc12`, with below 4.00.

For the molecule `O=c1cc(-c2ccc(N3CCNCC3)cc2)oc2c(OCc3ccco3)c(O)cc(O)c12`, the pIC50 with HepG2 was 5.08. Consider `CN1CCN(c2ccc(-c3cc(=O)c4c(O)cc(O)c(OC5CCNC5)c4o3)cc2)CC1` (stereo not given), for which the pIC50 with HepG2 was below 4.00. In the data set with HepG2, `COc1c(O)cc(O)c2c(=O)cc(-c3ccc(N4CCCC4)cc3)oc12` gave a pIC50 below 4.00. Take `COc1c(O)cc(O)c2c(=O)cc(-c3ccc(N4CCN(C)CC4)cc3)oc12`: the pIC50 with HepG2 is 5.18.

As to `O=c1cc(-c2ccc(N3CCNCC3)cc2)oc2c(OC3CCCCC3)c(O)cc(O)c12`, in the data set on HepG2, the pIC50 is 4.64. Same read-out and setting: in the case of `CN1CCN(c2ccc(-c3cc(=O)c4c(O)cc(O)c(OCc5ccco5)c4o3)cc2)CC1` it was 5.15. `CN1CCN(c2ccc(-c3cc(=O)c4c(O)cc(O)c(OC5CCCC5)c4o3)cc2)CC1` showed a pIC50 in the data set with HepG2 of 4.80. Still for that read-out and setting: in the case of `COc1c(O)cc(O)c2c(=O)cc(-c3ccccc3Cl)oc12` it was below 4.00; in that of `COc1c(O)cc(O)c2c(=O)cc(-c3cccc(C(F)(F)F)c3)oc12`, below 4.00. Same read-out and setting: then `COc1c(O)cc(O)c2c(=O)cc(-c3ccccc3C(F)(F)F)oc12`, with below 4.00. Consider `COc1c(O)cc(O)c2c(=O)cc(-c3ccc(N4CCNCC4)cc3)oc12`, for which, in the data set with HepG2, the pIC50 was 4.75.
